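Assay format: 96-well plates, 48-hour exposure. GI50 = concentration required for 50% inhibition of growth.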 Active and inactive are the calls of the source. Cut-off read from the data, not from the text of the source: active = GI50 up to about 1.1 µM and inactive = higher.
Tests used:
Assay in all cases: NCI-60 cell line screen, 48 h
[1] = system: HCT-15
[2] = system: IGROV-1
[3] = system: ACHN
[4] = system: K562
[5] = system: SW-620
[6] = system: SK-MEL-5
[7] = system: KM12
[8] = system: NCI-H23
[9] = system: DU-145
[10] = system: NCI-H522
[11] = system: SF-295
[12] = system: SR
[13] = system: NCI-H460
[14] = system: UO-31
[15] = system: TK-10
[16] = system: U-251
[17] = system: NCI-H226
[18] = system: NCI/ADR-RES
[19] = system: BT-549

| SMILES | GI50 [1] [µM] | GI50 [2] | GI50 [3] | GI50 [4] | GI50 [5] | GI50 [6] | GI50 [7] | GI50 [8] | GI50 [9] | GI50 [10] | GI50 [11] | GI50 [12] | GI50 [13] | GI50 [14] | GI50 [15] | GI50 [16] | GI50 [17] | GI50 [18] | GI50 [19] |
| --- | --- | --- | --- | --- | --- | --- | --- | --- | --- | --- | --- | --- | --- | --- | --- | --- | --- | --- | --- |
| CC(C)CC(NC(=O)C(C)(CI)Cc1ccccc1)C(=O)Nc1ccccc1 (stereo not drawn) | > 100 | > 100 µM (inactive) | > 100 µM (inactive) | > 100 µM (inactive) | > 100 µM (inactive) | > 100 µM (inactive) | > 100 µM (inactive) | > 100 µM (inactive) | > 100 µM (inactive) | > 100 µM (inactive) | > 100 µM (inactive) | 22.1 µM (inactive) | > 100 µM (inactive) | > 100 µM (inactive) | > 100 µM (inactive) | > 100 µM (inactive) | > 100 µM (inactive) | > 100 µM (inactive) |  |
| O=C(O)/C=C/c1ccc2c(c1)CC1(Cc3ccccc3C1)C2 | 40.3 | 56.4 µM (inactive) | 41.6 µM (inactive) | 47.2 µM (inactive) |  | 43.5 µM (inactive) | 55.8 µM (inactive) | 57 µM (inactive) |  | 54.5 µM (inactive) | 36.1 µM (inactive) | 23.2 µM (inactive) |  | 80 µM (inactive) | > 100 µM (inactive) | 49.5 µM (inactive) | 33.7 µM (inactive) | 76.7 µM (inactive) |  |
| Nc1ccc(Cc2c(N)[nH]c(=O)[nH]c2=O)cc1 | > 100 |  | > 100 µM (inactive) | > 100 µM (inactive) | > 100 µM (inactive) | > 100 µM (inactive) |  | > 100 µM (inactive) | > 100 µM (inactive) | > 100 µM (inactive) | > 100 µM (inactive) |  | > 100 µM (inactive) | > 100 µM (inactive) |  | > 100 µM (inactive) | 86.1 µM (inactive) | > 100 µM (inactive) | > 100 µM (inactive) |
| O=c1[nH]c(=O)n(C2CC(O)C(CO)O2)cc1C1=NC1 (stereo not drawn) | > 100 | > 100 µM (inactive) | > 100 µM (inactive) |  | > 100 µM (inactive) | > 100 µM (inactive) | > 100 µM (inactive) | > 100 µM (inactive) | > 100 µM (inactive) |  | > 100 µM (inactive) |  | > 100 µM (inactive) | > 100 µM (inactive) | > 100 µM (inactive) | > 100 µM (inactive) | > 100 µM (inactive) | > 100 µM (inactive) | > 100 µM (inactive) |
| Cc1ccc2c(c1)C(=O)N1CCC[C@H]1C=N2 | 28.5 | 14.3 µM (inactive) | 15 µM (inactive) | 7.76 µM (inactive) | 23.4 µM (inactive) | 11.1 µM (inactive) | 15.5 µM (inactive) | 16.5 µM (inactive) | 7.78 µM (inactive) | 5.13 µM (inactive) | 31.3 µM (inactive) |  | 20.4 µM (inactive) | 5.37 µM (inactive) | 20.5 µM (inactive) | 16.3 µM (inactive) |  | 21.1 µM (inactive) | 17.8 µM (inactive) |
| COC(=O)NC1(NC(=O)OC)NC(=O)c2cc(OC)c(OC)cc2N1 | 13.2 | 32.1 µM (inactive) | 64 µM (inactive) | 34.2 µM (inactive) | 42.6 µM (inactive) | 32.3 µM (inactive) | 35.8 µM (inactive) | 50.2 µM (inactive) | 48.6 µM (inactive) | 2.54 µM (inactive) | 23.6 µM (inactive) | 25.4 µM (inactive) | 30.7 µM (inactive) | 40 µM (inactive) | > 100 µM (inactive) |  |  | 31.5 µM (inactive) |  |
| CSC1=C(C#N)C(=O)N(c2ccc(Cl)cc2)C(=O)C1C#N (stereo not drawn) | > 100 | > 100 µM (inactive) | > 100 µM (inactive) | 78.9 µM (inactive) | > 100 µM (inactive) | > 100 µM (inactive) |  | > 100 µM (inactive) | > 100 µM (inactive) | > 100 µM (inactive) | 87.1 µM (inactive) | 15.4 µM (inactive) | > 100 µM (inactive) | > 100 µM (inactive) | > 100 µM (inactive) | > 100 µM (inactive) | > 100 µM (inactive) |  | > 100 µM (inactive) |
| O=c1cc(N2CCNCC2)nc2ccccn12 | > 100 | > 100 µM (inactive) | > 100 µM (inactive) | > 100 µM (inactive) | > 100 µM (inactive) | > 100 µM (inactive) | > 100 µM (inactive) | > 100 µM (inactive) | > 100 µM (inactive) | > 100 µM (inactive) | > 100 µM (inactive) |  |  | > 100 µM (inactive) | > 100 µM (inactive) | > 100 µM (inactive) | > 100 µM (inactive) | > 100 µM (inactive) | > 100 µM (inactive) |
| C=C(C(N)=O)c1ccc([N+](=O)[O-])o1 | 9.02 | 10.6 µM (inactive) | 2.89 µM (inactive) | 3.61 µM (inactive) | 5.81 µM (inactive) | 5.74 µM (inactive) | 16.7 µM (inactive) | 5.02 µM (inactive) | 11.4 µM (inactive) | 1.97 µM (inactive) | 42 µM (inactive) | 9.46 µM (inactive) | 19.9 µM (inactive) |  | 14.1 µM (inactive) | 15.6 µM (inactive) | 20.3 µM (inactive) | 15.5 µM (inactive) |  |

From ChEMBL document CHEMBL1201862, “PubChem BioAssay data set” (2004)
